The source of these data is patent publication US20260174786A1, “A NITROGEN-CONTAINING SPIROCYCLIC COMPOUND, PHARMACEUTICAL COMPOSITION AND USE THEREOF” (Prime Gene Therapeutics Co., Ltd., priority 2022, published 2026).

The target in one series is T1, hTRPV3 (Homo sapiens, UniProt Q8NET8).
T1 construct: expressed in transfected cells; host or cells: HEK-293
T1 sequence (Q8NET8 1-790): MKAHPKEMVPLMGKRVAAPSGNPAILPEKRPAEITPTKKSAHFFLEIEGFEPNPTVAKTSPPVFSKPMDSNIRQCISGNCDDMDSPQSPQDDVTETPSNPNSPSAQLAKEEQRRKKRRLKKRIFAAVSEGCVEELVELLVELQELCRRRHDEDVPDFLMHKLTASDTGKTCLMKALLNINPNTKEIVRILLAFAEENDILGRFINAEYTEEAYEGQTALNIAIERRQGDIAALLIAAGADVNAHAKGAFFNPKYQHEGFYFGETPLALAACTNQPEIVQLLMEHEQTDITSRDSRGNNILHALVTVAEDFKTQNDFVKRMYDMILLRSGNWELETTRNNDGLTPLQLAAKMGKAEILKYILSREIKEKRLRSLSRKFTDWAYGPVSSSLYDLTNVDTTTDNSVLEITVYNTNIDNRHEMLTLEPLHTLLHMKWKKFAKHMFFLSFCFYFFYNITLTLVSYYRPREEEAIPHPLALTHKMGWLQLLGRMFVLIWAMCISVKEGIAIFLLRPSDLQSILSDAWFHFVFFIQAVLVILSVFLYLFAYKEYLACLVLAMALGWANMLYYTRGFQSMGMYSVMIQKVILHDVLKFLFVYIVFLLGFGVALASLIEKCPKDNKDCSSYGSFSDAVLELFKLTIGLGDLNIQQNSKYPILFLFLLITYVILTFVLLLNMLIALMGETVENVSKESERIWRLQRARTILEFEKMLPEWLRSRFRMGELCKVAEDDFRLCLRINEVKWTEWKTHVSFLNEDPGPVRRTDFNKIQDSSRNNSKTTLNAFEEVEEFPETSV
Put plainly: Whole cell patch clamp inhibition rate test on HEK-293 cells instantaneously expressing TRPV3. In kind it is cell-based. The settings on record: HEK293. The method in brief:
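HEK-293 cells transiently transfected with TRPV3, recorded next-but-one day by whole-cell patch clamp at room temperature: holding −80 mV, ramp −100 to 100 mV over 100 ms every 5 s, peak current monitored. Ascending concentrations perfused, 5 min each; each cell its own control, at least two cells per concentration.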
(In general: The patch-clamp technique gives a direct electrical read-out from membranes.)

Series [1] in a line: Parallel artificial membrane permeability test (Lipid PAMPA). Format: in vitro ADME. The settings on record: for recovery at 16 h, 10 μM: pH 7.4, test concentration 10 μM, read-out: rate of recovery %; for −LOG Pe / Papp at 16 h, 10 μM: test concentration 10 μM; for Papp at 16 h, 10 μM: pH 7.4, 16 hours, read-out: Effective penetration rate Pe. As for the experimental part:
1. Preparing the test compound in 10 mM DMSO and diluting 1000 fold to 10 μM with PBS. 2. Ultrasonic treating lecithin in dodecane at a rate of 18 mg/ml. 3. Adding 300 μL/well of 10 μM test compound solution into the donor chamber (bottom) in triplicate. 4. Adding 5 μL/well lecithin/dodecane to the receptor chamber (top), and then adding 300 μL/well PBS (pH=7.4) to the receptor chamber within 10 minutes. 5. Transferring 50 μL of 10 μM test compound onto a sample plate containing 200 μL of cold methanol, with IS * being C0. 6. Inserting the receptor chamber into the donor chamber and incubating at 25° C. for 16 hours. 7. After 16 hours of incubation, transferring 50 μL from the receptor and donor compartments to a sample plate containing 200 μL of cold methanol and IS *. 8. Centrifuging the sample plate at 4° C. and 3220 g for 40 minutes. 9. Transferring 100 μL of supernatant to an analysis plate containing an appropriate volume of H2O for LC-MS/MS analysis. 10. Data analysis.

Another series concerns the target hTRPA1 (Homo sapiens, UniProt O75762). Put plainly: Inhibition rate on different hTRPs: hTRPA1. Format: cell-based.
Where [2] appears, read: hTRPV3, single concentration 0.3 μM.

Chain of hTRPA1 (O75762 whole entry): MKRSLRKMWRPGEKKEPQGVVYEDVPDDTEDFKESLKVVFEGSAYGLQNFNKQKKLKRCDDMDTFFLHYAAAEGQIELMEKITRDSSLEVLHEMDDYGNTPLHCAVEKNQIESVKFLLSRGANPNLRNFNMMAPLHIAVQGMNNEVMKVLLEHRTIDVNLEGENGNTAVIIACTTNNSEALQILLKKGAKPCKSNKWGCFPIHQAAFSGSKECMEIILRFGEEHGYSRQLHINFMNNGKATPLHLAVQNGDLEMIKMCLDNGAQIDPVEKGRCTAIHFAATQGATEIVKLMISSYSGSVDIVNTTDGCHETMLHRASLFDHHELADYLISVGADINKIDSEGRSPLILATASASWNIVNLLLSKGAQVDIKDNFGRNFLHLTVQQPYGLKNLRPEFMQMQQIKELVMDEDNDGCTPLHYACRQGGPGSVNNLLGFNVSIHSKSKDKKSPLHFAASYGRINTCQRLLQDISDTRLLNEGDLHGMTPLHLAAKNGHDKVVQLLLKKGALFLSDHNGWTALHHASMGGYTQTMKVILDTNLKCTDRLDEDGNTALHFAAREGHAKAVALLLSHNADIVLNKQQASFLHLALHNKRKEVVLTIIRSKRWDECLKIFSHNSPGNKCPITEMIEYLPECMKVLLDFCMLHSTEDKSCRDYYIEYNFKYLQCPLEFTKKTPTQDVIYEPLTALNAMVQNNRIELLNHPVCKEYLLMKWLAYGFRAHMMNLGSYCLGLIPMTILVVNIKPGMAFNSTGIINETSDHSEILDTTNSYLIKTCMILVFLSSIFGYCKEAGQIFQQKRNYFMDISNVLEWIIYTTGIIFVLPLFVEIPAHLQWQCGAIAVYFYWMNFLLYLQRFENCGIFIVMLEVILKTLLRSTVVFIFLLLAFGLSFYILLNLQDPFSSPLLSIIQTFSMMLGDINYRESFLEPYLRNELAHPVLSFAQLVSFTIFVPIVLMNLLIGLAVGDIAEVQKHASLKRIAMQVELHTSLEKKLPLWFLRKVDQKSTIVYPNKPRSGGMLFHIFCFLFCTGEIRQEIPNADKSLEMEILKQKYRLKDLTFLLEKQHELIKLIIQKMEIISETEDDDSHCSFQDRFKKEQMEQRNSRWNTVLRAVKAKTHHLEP

In the case of `O=C(c1ccc(F)cn1)N1CCC2(CC(O)c3cc(-c4ccccc4C4CC4)ccc32)C1` (centres unmarked) [Example 15, (5-(2-cyclopropylphenyl)-3-hydroxy-2,3-dihydrospiro[indene-1,3′-pyrrolidine]-1′-yl)(5-fluoropyridin-2-yl) ketone], the inhibition (usually the drop in the measured response relative to a control, in per cent) at 0.3 µM on hTRPV3 (setting [2]) was in the range of 70 to 100%. In series [1], the recovery at 16 h, 10 μM came out at 16.9%; the “−LOG Pe” value is given as 4.85; the Papp at 16 h, 10 μM amounted to 14.1 ×10⁻⁶ cm/s.
The molecule `O=C(c1ccc(F)cn1)N1CC[C@@]2(C[C@@H](O)c3cc(-c4ccccc4C4CC4)ccc32)C1` [Example 21, ((1S,3R)-5-(2-cyclopropylphenyl)-3-hydroxy-2,3-dihydrospiro[indene-1,3′-pyrrolidine]-1′-yl)(5-fluoropyridin-2-yl)ketone] yielded an inhibition at 0.3 µM against hTRPV3 (hTRPV3, 0.3 μM) of 89.6%. The molecule also returned an inhibition at 0.3 µM on hTRPV3 (setting [2]) of 70 to 100%. The inhibition at 0.3 µM against hTRPA1 (hTRPA1, 0.3 μM) turned out to be 10.7%. For the same molecule, on hTRPA1 (inhibition rate on TRPV3 / inhibition rate on hTRPA1, 0.3 μM), the Selectivity ratio was determined as 8.4X. Further, in series [1], the recovery at 16 h, 10 μM was 18.8%; the “−LOG Pe” value is reported as 4.79; the Papp at 16 h, 10 μM amounted to 16.3 ×10⁻⁶ cm/s.
